Results published in ChEMBL document CHEMBL3351415, “Synthesis, antimicrobial and anti-biofilm activities of novel Schiff base analogues derived from methyl-12-aminooctadec-9-enoate” (Bioorg Med Chem Lett, 2014).
Converted amounts (≈) assume the structure as drawn.

Key:
[1] = system: Staphylococcus aureus; experiment: Antimicrobial activity against Staphylococcus aureus MLS-16 MTCC 2940 incubated for 24 hrs by well diffusion method; format: functional; settings: MLS-16 MTCC 2940, 24 h
[2] = system: Bacillus subtilis; experiment: Bactericidal activity against Bacillus subtilis MTCC 121 incubated for 24 hrs; format: functional; settings: MTCC 121, 24 h
[3] = system: Staphylococcus aureus; experiment: Bactericidal activity against Staphylococcus aureus MLS-16 MTCC 2940 incubated for 24 hrs; format: functional; settings: MLS-16 MTCC 2940, 24 h
[4] = system: Pseudomonas aeruginosa; experiment: Antimicrobial activity against Pseudomonas aeruginosa MTCC 2453 incubated for 24 hrs by well diffusion method; format: functional; settings: MTCC 2453, 24 h
[5] = system: Bacillus subtilis; experiment: Antimicrobial activity against Bacillus subtilis MTCC 121 incubated for 24 hrs by well diffusion method; format: functional; settings: MTCC 121, 24 h
[6] = system: Staphylococcus aureus; experiment: Antimicrobial activity against Staphylococcus aureus MTCC 96 incubated for 24 hrs by well diffusion method; format: functional; settings: MTCC 96, 24 h
[7] = system: Micrococcus luteus; experiment: Antimicrobial activity against Micrococcus luteus MTCC 2470 incubated for 24 hrs by well diffusion method; format: functional; settings: MTCC 2470, 24 h
[8] = system: Staphylococcus aureus; experiment: Anti-biofilm activity against Staphylococcus aureus MLS-16 MTCC 2940 assessed as inhibition of biofilm formation incubated for 24 hrs by crystal violet staining based modified biofilm inhibition assay; format: functional, organism-based; settings: MLS-16 MTCC 2940, 24 h
[9] = Antimicrobial activity against Klebsiella […] incubated for 24 hrs by well diffusion method; format: functional, Raoultella planticola
[10] = system: Staphylococcus aureus; experiment: Bactericidal activity against Staphylococcus aureus MTCC 96 incubated for 24 hrs; format: functional; settings: MTCC 96, 24 h
[11] = system: Escherichia coli; experiment: Antimicrobial activity against Escherichia coli MTCC 739 incubated for 24 hrs by well diffusion method; format: functional; settings: MTCC 739, 24 h
[12] = system: Staphylococcus aureus; experiment: Anti-biofilm activity against Staphylococcus aureus MTCC 96 assessed as inhibition of biofilm formation incubated for 24 hrs by crystal violet staining based modified biofilm inhibition assay; format: functional, organism-based; settings: MTCC 96, 24 h
[13] = system: Bacillus subtilis; experiment: Anti-biofilm activity against Bacillus subtilis MTCC 121 assessed as inhibition of biofilm formation incubated for 24 hrs by crystal violet staining based modified biofilm inhibition assay; format: functional, organism-based; settings: MTCC 121, 24 h

| Compound | MIC [1] [µM] | MBC [2] [µM] | MBC [3] [µM] | MIC [4] [µM] | MIC [5] [µM] | MIC [6] [µM] | MIC [7] [µM] | IC50 [8] [µM] | MIC [9] [µM] | MBC [10] [µM] | MIC [11] [µM] | IC50 [12] [µM] | IC50 [13] [µM] |
| --- | --- | --- | --- | --- | --- | --- | --- | --- | --- | --- | --- | --- | --- |
| CCCCCCC(C/C=C\CCCCCCCC(=O)OC)/N=C\c1ccc(Cl)cc1 (stereo not given) | 9 (≈ 3.91 µg/mL) | 9 (≈ 3.91 µg/mL) | 18 (≈ 7.81 µg/mL) | > 300 | 9 (≈ 3.91 µg/mL) | 9 (≈ 3.91 µg/mL) | > 300 | 4.3 | > 300 | 18 (≈ 7.81 µg/mL) | > 300 | 4.8 | 6 |
| CCCCCCC(C/C=C\CCCCCCCC(=O)OC)/N=C\c1ccc(Cl)cc1Cl (stereo not given) | > 300 | – | – | > 300 | > 300 | > 300 | > 300 | – | > 300 | – | > 300 | – | – |
| CCCCCCC(C/C=C\CCCCCCCC(=O)OC)/N=C\c1ccc(F)cc1 (stereo not given) | 150 (≈ 62.6 µg/mL) | – | – | > 300 | 150 (≈ 62.6 µg/mL) | 150 (≈ 62.6 µg/mL) | > 300 | – | > 300 | – | > 300 | – | – |
| CCCCCCC(C/C=C\CCCCCCCC(=O)OC)/N=C\c1ccccc1O (stereo not given) | > 300 | – | – | > 300 | > 300 | > 300 | > 300 | – | > 300 | – | > 300 | – | – |
| CCCCCCC(C/C=C\CCCCCCCC(=O)OC)/N=C\c1ccc(O)cc1 (stereo not given) | 18.7 (≈ 7.77 µg/mL) | 75.1 (≈ 31.2 µg/mL) | 37.5 (≈ 15.6 µg/mL) | > 300 | 37.5 (≈ 15.6 µg/mL) | 18.7 (≈ 7.77 µg/mL) | > 300 | 9.1 | > 300 | 37.5 (≈ 15.6 µg/mL) | > 300 | 10.1 | 19.5 |
| CCCCCCC(C/C=C\CCCCCCCC(=O)OC)/N=C\c1ccc(OC)cc1 (stereo not given) | 36.3 (≈ 15.6 µg/mL) | 36.3 (≈ 15.6 µg/mL) | 36.3 (≈ 15.6 µg/mL) | > 300 | 18.1 (≈ 7.78 µg/mL) | 18.1 (≈ 7.78 µg/mL) | > 300 | 23.7 | > 300 | 36.3 (≈ 15.6 µg/mL) | > 300 | 12.1 | 7.9 |
| CCCCCCC(C/C=C\CCCCCCCC(=O)OC)/N=C\c1ccc(OC)cc1OC (stereo not given) | 33.9 (≈ 15.6 µg/mL) | – | – | > 300 | 33.9 (≈ 15.6 µg/mL) | 67.9 (≈ 31.2 µg/mL) | > 300 | – | > 300 | – | > 300 | – | – |
| CCCCCCC(C/C=C\CCCCCCCC(=O)OC)/N=C\c1ccc(OC)c(OC)c1 (stereo not given) | 33.9 (≈ 15.6 µg/mL) | 33.9 (≈ 15.6 µg/mL) | 67.9 (≈ 31.2 µg/mL) | > 300 | 33.9 (≈ 15.6 µg/mL) | 67.9 (≈ 31.2 µg/mL) | > 300 | 24.4 | > 300 | 136 (≈ 62.5 µg/mL) | > 300 | 41.8 | 21.3 |
| CCCCCCC(C/C=C\CCCCCCCC(=O)OC)/N=C\c1ccc(C#N)cc1 (stereo not given) | > 300 | – | – | > 300 | > 300 | > 300 | > 300 | – | > 300 | – | > 300 | – | – |
| CCCCCCC(C/C=C\CCCCCCCC(=O)OC)/N=C\c1ccc(C)cc1 (stereo not given) | > 300 | – | – | > 300 | > 300 | > 300 | > 300 | – | > 300 | – | > 300 | – | – |
| CCCCCCC(C/C=C\CCCCCCCC(=O)OC)/N=C\c1cccc(C)c1 (stereo not given) | 75.5 (≈ 31.2 µg/mL) | – | – | > 300 | 75.5 (≈ 31.2 µg/mL) | 151 (≈ 62.6 µg/mL) | > 300 | – | > 300 | – | > 300 | – | – |
| CCCCCCC(C/C=C\CCCCCCCC(=O)OC)/N=C\c1cccc([N+](=O)[O-])c1 (stereo not given) | > 300 | – | – | > 300 | > 300 | > 300 | > 300 | – | > 300 | – | > 300 | – | – |
| CCCCCCC(C/C=C\CCCCCCCC(=O)OC)/N=C\c1ccc(N(C)C)cc1 (stereo not given) | 17.6 (≈ 7.79 µg/mL) | 70.5 (≈ 31.2 µg/mL) | 35.2 (≈ 15.6 µg/mL) | > 300 | 35.2 (≈ 15.6 µg/mL) | 17.6 (≈ 7.79 µg/mL) | > 300 | 11.5 | > 300 | 17.6 (≈ 7.79 µg/mL) | > 300 | 9.5 | 27.8 |
| CCCCCCC(C/C=C\CCCCCCCC(=O)OC)/N=C\c1ccc(O)c(OC)c1 (stereo not given) | 17.5 (≈ 7.8 µg/mL) | 35 (≈ 15.6 µg/mL) | 35 (≈ 15.6 µg/mL) | > 300 | 17.5 (≈ 7.8 µg/mL) | 17.5 (≈ 7.8 µg/mL) | > 300 | 8 | > 300 | 35 (≈ 15.6 µg/mL) | > 300 | 9.4 | 10.3 |
| CCCCCCC(C/C=C\CCCCCCCC(=O)OC)/N=C\c1cc(OC)c(O)c(OC)c1 (stereo not given) | 16.4 (≈ 7.8 µg/mL) | 16.4 (≈ 7.8 µg/mL) | 32.8 (≈ 15.6 µg/mL) | > 300 | 16.4 (≈ 7.8 µg/mL) | 16.4 (≈ 7.8 µg/mL) | > 300 | 6.5 | > 300 | 16.4 (≈ 7.8 µg/mL) | > 300 | 7.3 | 8.6 |
| CCCCCCC(C/C=C\CCCCCCCC(=O)OC)/N=C\C=C\c1ccc(N(C)C)cc1 (stereo not given) | 16.6 (≈ 7.78 µg/mL) | 66.6 (≈ 31.2 µg/mL) | 33.3 (≈ 15.6 µg/mL) | > 300 | 33.3 (≈ 15.6 µg/mL) | 16.6 (≈ 7.78 µg/mL) | > 300 | 8.1 | > 300 | 16.6 (≈ 7.78 µg/mL) | > 300 | 10.2 | 21.7 |
| CCCCCCC(C/C=C\CCCCCCCC(=O)OC)/N=C\c1c[nH]c2ccccc12 (stereo not given) | 17.8 (≈ 7.81 µg/mL) | 71.2 (≈ 31.2 µg/mL) | 35.6 (≈ 15.6 µg/mL) | > 300 | 35.6 (≈ 15.6 µg/mL) | 17.8 (≈ 7.81 µg/mL) | > 300 | 9.5 | > 300 | 35.6 (≈ 15.6 µg/mL) | > 300 | 7.3 | 21.9 |
| O=C(O)c1cn(C2CC2)c2cc(N3CCNCC3)c(F)cc2c1=O [CIPROFLOXACIN] | 2.7 (≈ 0.895 µg/mL) | 5.7 (≈ 1.89 µg/mL) | 5.7 (≈ 1.89 µg/mL) | 2.7 (≈ 0.895 µg/mL) | 2.7 (≈ 0.895 µg/mL) | 2.7 (≈ 0.895 µg/mL) | 2.7 (≈ 0.895 µg/mL) | – | 2.7 (≈ 0.895 µg/mL) | 2.7 (≈ 0.895 µg/mL) | 2.7 (≈ 0.895 µg/mL) | 0.99 | 1.53 |
